According to ChEMBL document CHEMBL1201862, “PubChem BioAssay data set” (2004):
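Where inhibition never reached the appropriate level, the endpoint shown equals the highest concentration tested. Otherwise, values were interpolated linearly from a five-concentration, 48-hour dose response in 96-well plates. GI50 marks 50% less growth.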 Active and inactive are the calls of the source. No stated cut-off is given here; in the data, active = GI50 up to about 1.1 µM and inactive = higher.

Key:
Experiment in all cases: NCI anticancer screen, dose series, 48 h
786-0 = system: 786-0
A498 = system: A498
A549 = system: A549
BT-549 = system: BT-549
CAKI-1 = system: CAKI-1
CCRF-CEM = system: CCRF-CEM
COLO 205 = system: COLO 205
DU-145 = system: DU-145
EKVX = system: EKVX
HCC 2998 = system: HCC 2998
HCT-116 = system: HCT-116
HCT-15 = system: HCT-15
HL-60 = system: HL-60
HOP-62 = system: HOP-62
HOP-92 = system: HOP-92
HT-29 = system: HT-29
Hs-578T = system: Hs-578T
IGROV-1 = system: IGROV-1
KM12 = system: KM12
LOX IMVI = system: LOX IMVI
M14 = system: M14
MCF7 = system: MCF7
MDA-MB-231 = system: MDA-MB-231
MDA-MB-435 = system: MDA-MB-435
MDA-N = system: MDA-N
MOLT-4 = system: MOLT-4
Malme-3M = system: Malme-3M
NCI-H226 = system: NCI-H226
NCI-H23 = system: NCI-H23
NCI-H460 = system: NCI-H460
NCI-H522 = system: NCI-H522
NCI/ADR-RES = system: NCI/ADR-RES
OVCAR-3 = system: OVCAR-3
OVCAR-4 = system: OVCAR-4
OVCAR-5 = system: OVCAR-5
OVCAR-8 = system: OVCAR-8
RPMI-8226 = system: RPMI-8226
RXF 393 = system: RXF 393
SF-268 = system: SF-268
SF-295 = system: SF-295
SF-539 = system: SF-539
SK-MEL-28 = system: SK-MEL-28
SK-MEL-2 = system: SK-MEL-2
SK-MEL-5 = system: SK-MEL-5
SK-OV-3 = system: SK-OV-3
SN12C = system: SN12C
SNB-19 = system: SNB-19
SW-620 = system: SW-620
T47D = system: T47D
U-251 = system: U-251
UACC-257 = system: UACC-257
UACC-62 = system: UACC-62
UO-31 = system: UO-31
ACHN = system: ACHN
K562 = system: K562
PC-3 = system: PC-3
SNB-75 = system: SNB-75

`O=C(Nc1ccc2[nH]c(C(=O)N3CC(CCl)c4ccc([N+](=O)[O-])cc43)cc2c1)c1cc2ccccc2o1` (stereo not drawn) was tested, and the GI50 (786-0) was > 1100 µM (inactive), the GI50 (A498) was > 1100 µM (inactive) and the GI50 (A549) was 556 µM (inactive). For the same molecule, the GI50 (BT-549) was > 1100 µM (inactive), the GI50 (CAKI-1) was > 1100 µM (inactive) and the GI50 (CCRF-CEM) was > 1100 µM (inactive). For the same molecule, the GI50 (COLO 205) was > 1100 µM (inactive), the GI50 (DU-145) was > 1100 µM (inactive) and the GI50 (EKVX) was > 1100 µM (inactive). The GI50 (HCC 2998) was > 1100 µM (inactive), the GI50 (HCT-116) was > 1100 µM (inactive) and the GI50 (HCT-15) was greater than 1100 µM. For the same molecule, the GI50 (HL-60) was > 1100 µM (inactive), the GI50 (HOP-62) was > 1100 µM (inactive) and the GI50 (HOP-92) was > 1100 µM (inactive). For the same molecule, the GI50 (HT-29) was > 1100 µM (inactive), the GI50 (Hs-578T) was > 1100 µM (inactive) and the GI50 (IGROV-1) was > 1100 µM (inactive). For the same molecule, the GI50 (KM12) was > 1100 µM (inactive), the GI50 (LOX IMVI) was > 1100 µM (inactive) and the GI50 (M14) was > 1100 µM (inactive). The GI50 (MCF7) was > 1100 µM (inactive), the GI50 (MDA-MB-231) was > 1100 µM (inactive) and the GI50 (MDA-MB-435) was > 1100 µM (inactive). The GI50 (MDA-N) was > 1100 µM (inactive), the GI50 (MOLT-4) was > 1100 µM (inactive) and the GI50 (Malme-3M) was > 1100 µM (inactive). For the same molecule, the GI50 (NCI-H226) was > 1100 µM (inactive), the GI50 (NCI-H23) was > 1100 µM (inactive) and the GI50 (NCI-H460) was 98.4 µM (inactive). The GI50 (NCI-H522) was 258 µM (inactive), the GI50 (NCI/ADR-RES) was > 1100 µM (inactive) and the GI50 (OVCAR-3) was > 1100 µM (inactive). The GI50 (OVCAR-4) was > 1100 µM (inactive), the GI50 (OVCAR-5) was 893 µM (inactive) and the GI50 (OVCAR-8) was > 1100 µM (inactive). For the same molecule, the GI50 (RPMI-8226) was > 1100 µM (inactive), the GI50 (RXF 393) was > 1100 µM (inactive) and the GI50 (SF-268) was > 1100 µM (inactive). For the same molecule, the GI50 (SF-295) was 716 µM (inactive), the GI50 (SF-539) was > 1100 µM (inactive) and the GI50 (SK-MEL-28) was > 1100 µM (inactive). The GI50 (SK-MEL-2) was > 1100 µM (inactive), the GI50 (SK-MEL-5) was > 1100 µM (inactive) and the GI50 (SK-OV-3) was > 1100 µM (inactive). For the same molecule, the GI50 (SN12C) was > 1100 µM (inactive), the GI50 (SNB-19) was > 1100 µM (inactive) and the GI50 (SW-620) was > 1100 µM (inactive). For the same molecule, the GI50 (T47D) was > 1100 µM (inactive), the GI50 (U-251) was > 1100 µM (inactive) and the GI50 (UACC-257) was > 1100 µM (inactive). The GI50 (UACC-62) was > 1100 µM (inactive) and the GI50 (UO-31) was > 1100 µM (inactive).

For `COc1ccc(/C=N/n2c(C)n[nH]c2=O)c(OC)c1`, the GI50 (786-0) was > 100 µM (inactive), the GI50 (A498) was 57.9 µM (inactive) and the GI50 (A549) was > 100 µM (inactive). For the same molecule, the GI50 (ACHN) was > 100 µM (inactive), the GI50 (BT-549) was > 100 µM (inactive) and the GI50 (CAKI-1) was > 100 µM (inactive). For the same molecule, the GI50 (CCRF-CEM) was > 100 µM (inactive), the GI50 (COLO 205) was > 100 µM (inactive) and the GI50 (DU-145) was 71.6 µM (inactive). The GI50 (EKVX) was 83 µM (inactive), the GI50 (HCC 2998) was > 100 µM (inactive) and the GI50 (HCT-116) was > 100 µM (inactive). For the same molecule, the GI50 (HCT-15) was greater than 100 µM, the GI50 (HOP-62) was > 100 µM (inactive) and the GI50 (HT-29) was > 100 µM (inactive). The GI50 (Hs-578T) was 3.08 µM (inactive), the GI50 (K562) was > 100 µM (inactive) and the GI50 (KM12) was > 100 µM (inactive). The GI50 (M14) was > 100 µM (inactive), the GI50 (MCF7) was > 100 µM (inactive) and the GI50 (MDA-MB-231) was > 100 µM (inactive). For the same molecule, the GI50 (MDA-MB-435) was 90.4 µM (inactive), the GI50 (MDA-N) was > 100 µM (inactive) and the GI50 (MOLT-4) was 85.1 µM (inactive). For the same molecule, the GI50 (Malme-3M) was > 100 µM (inactive), the GI50 (NCI-H226) was > 100 µM (inactive) and the GI50 (NCI-H23) was > 100 µM (inactive). For the same molecule, the GI50 (NCI-H460) was > 100 µM (inactive), the GI50 (NCI/ADR-RES) was > 100 µM (inactive) and the GI50 (OVCAR-3) was > 100 µM (inactive). For the same molecule, the GI50 (OVCAR-4) was > 100 µM (inactive), the GI50 (OVCAR-5) was > 100 µM (inactive) and the GI50 (OVCAR-8) was > 100 µM (inactive). The GI50 (PC-3) was > 100 µM (inactive), the GI50 (RPMI-8226) was > 100 µM (inactive) and the GI50 (SF-268) was > 100 µM (inactive). For the same molecule, the GI50 (SF-295) was > 100 µM (inactive), the GI50 (SF-539) was > 100 µM (inactive) and the GI50 (SK-MEL-28) was > 100 µM (inactive). The GI50 (SK-MEL-2) was > 100 µM (inactive), the GI50 (SK-OV-3) was > 100 µM (inactive) and the GI50 (SN12C) was > 100 µM (inactive). The GI50 (SNB-19) was > 100 µM (inactive), the GI50 (SNB-75) was > 100 µM (inactive) and the GI50 (SW-620) was > 100 µM (inactive). The GI50 (T47D) was > 100 µM (inactive), the GI50 (U-251) was > 100 µM (inactive) and the GI50 (UACC-257) was > 100 µM (inactive). For the same molecule, the GI50 (UACC-62) was 35.2 µM (inactive) and the GI50 (UO-31) was > 100 µM (inactive).
